Results taken from patent US6387893B1, “Spirotricyclic substituted azacycloalkane derivatives and uses thereof” (Merck & Co., Inc., priority 1999, dated 2002).
Counter-ions that a name gives are not always drawn.

molecular target: T1, human alpha 1a adrenergic receptor (Homo sapiens, UniProt P35348); experiment: Screening assay: alpha 1a adrenergic receptor binding ([125I]-HEAT competition); settings: membranes from stably transfected human alpha 1a cell line (ATCC CRL 11140), 100 pM [125I]-HEAT
T1 sequence (P35348 1-466): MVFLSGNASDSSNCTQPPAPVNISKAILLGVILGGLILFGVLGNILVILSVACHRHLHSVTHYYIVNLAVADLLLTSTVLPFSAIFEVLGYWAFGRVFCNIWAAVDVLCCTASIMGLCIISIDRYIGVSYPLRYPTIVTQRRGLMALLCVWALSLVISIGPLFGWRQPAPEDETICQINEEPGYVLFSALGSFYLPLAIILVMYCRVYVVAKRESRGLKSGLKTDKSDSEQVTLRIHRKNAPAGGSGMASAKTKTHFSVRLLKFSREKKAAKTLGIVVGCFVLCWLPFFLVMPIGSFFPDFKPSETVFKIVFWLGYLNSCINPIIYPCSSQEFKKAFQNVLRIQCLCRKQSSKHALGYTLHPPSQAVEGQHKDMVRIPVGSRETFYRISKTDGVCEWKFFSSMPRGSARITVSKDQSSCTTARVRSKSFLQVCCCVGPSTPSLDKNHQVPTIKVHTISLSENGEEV
Protocol: Screening Assay: Alpha 1a Adrenergic Receptor Binding
Membranes prepared from the stably transfected human alpha 1a cell line (ATCC CRL 11140) were used to identify compounds that bind to the human alpha 1a adrenergic receptor. These competition binding reactions (total volume=200 μl) contained 50 mM Tris-HCl pH. 7.4, 5 mM EDTA, 150 mM NaCl, 100 pM [^125I]-HEAT, membranes prepared from the alpha 1a cell line and increasing amounts of unlabeled ligand. Reactions were incubated at room temperature for one hour with shaking. Reactions were filtered onto Whatman GF/C glass fiber filters with a Inotec 96 well cell harvester. Filters were washed three times with ice cold buffer and bound radioactivity was determined (Ki).

Ki [nM] | Compound
< 20 | O=C(NCCCN1CCC2(CC1)c1ccccc1-c1ccccc12)N1C(=O)OC[C@@H]1c1ccc(F)c(F)c1 [Example 6, 1′-{3-[(4S)-(3,4-Difluorophenyl)-2-oxooxazolidin-3-carbonylamino]propyl}spirofluorene-9,4′-piperidine]
< 20 | Cc1ccc(C2(c3ccc(C)cc3)NC(=O)N(CCCN3CCC4(CC3)c3ccccc3-c3ccc(Br)cc34)C2=O)cc1 [Example 10, 1′-[3-(5,5-Bis-p-tolyl-2,4-dioxoimidazolidin-3-yl)propyl]-2-bromospirofluorene-9,4′-piperidine]
< 20 | O=C(NCCCN1CCC2(CC1)c1cc(F)ccc1Oc1ccc(F)cc12)N1C(=O)OC[C@@H]1c1ccc(F)c(F)c1 [Example 44, 1′-{3-[(4S)-(3,4-Difluorophenyl)-2-oxooxazolidin-3-carbonylamino]propyl}-2,7-difluorospiroxanthene-9,4′-piperidine]
< 20 | O=C(NCCCN1CCC2(CC1)c1cc(Cl)ccc1Oc1ccc(Cl)cc12)N1C(=O)OC[C@@H]1c1ccc(F)c(F)c1 [Example 42, 1′-{3-[(4S)-(3,4-Difluorophenyl)-2-oxooxazolidin-3-carbonylamino]propyl}-2,7-dichlorospiroxanthene-9,4′-piperidine]
< 20 | O=C(NCCCN1CCC2(CC1)c1ccccc1[S+]([O-])c1ccccc12)N1C(=O)OC[C@@H]1c1ccc(F)c(F)c1 [Example 26, 1′-{3-[(4S)-(3,4-Difluorophenyl)-2-oxooxazolidin-3-carbonylamino]propyl}-(10-oxo-spirothioxanthene-9,4′-piperidine)]
< 20 | O=C(NCCCN1CCC2(CC1)c1ccccc1S(=O)(=O)c1ccccc12)N1C(=O)OC[C@@H]1c1ccc(F)c(F)c1 [Example 32, 1′-{3-[(4S)-(3,4-Difluorophenyl)-2-oxooxazolidin-3-carbonylamino]propyl}-(10,10-dioxo-spirothioxanthene-9,4′-piperidine)]
< 20 | O=C(NCCCN1CCC2(CC1)c1ccccc1Oc1ccc(Cl)cc12)N1C(=O)OC[C@@H]1c1ccc(F)c(F)c1 [Example 40, 1′-{3-[(4S)-(3,4-Difluorophenyl)-2-oxooxazolidin-3-carbonylamino]propyl}-2-chlorospiroxanthene-9,4′-piperidine]
< 20 | COCC1=C(C(=O)OC)[C@H](c2ccc(F)c(F)c2)N(C(=O)NCCCN2CCC3(CC2)c2ccccc2S(=O)(=O)c2ccccc23)C(=O)N1 [Example 33, 1,2,3,6-tetrahydro-1-[(10,10-dioxo-spirothioxanthene-9,4′-piperidin-1′-yl)propyl]aminocarbonyl-5-methoxycarbonyl-4-methoxymethyl-6(S)-(3,4-difluorophenyl)-2-oxopyrimidine]
< 20 | O=C(NCCCN1CCC2(CC1)c1ccccc1CCc1ccccc12)N1C(=O)OC[C@@H]1c1ccc(F)c(F)c1 [Example 57, 1′-{3-[4(S)-(3,4-difluorophenyl)-2-oxooxazolidin-3-carbonylamino]-propyl}-(10,11-dihydrospiro-5H-dibenzo[a,d]cycloheptene)-5,4′-piperidine]
< 20 | COCC1=C(C(=O)OC)[C@H](c2ccc(F)c(F)c2)N(C(=O)NCCCN2CCC3(CC2)c2ccccc2-c2ccccc23)C(=O)N1 [Example 8, 1,2,3,6-tetrahydro-1-[(spirofluorene-9,4′-piperidin-1′-yl)propyl]aminocarbonyl-5-methoxycarbonyl-4-methoxymethyl-6(S)-(3,4-difluorophenyl)-2-oxopyrimidine]
< 20 | O=C1OC[C@H](c2ccc(F)c(F)c2)N1CCCCCN1CCC2(CC1)c1ccccc1CCc1ccccc12 [Example 58, 1′-{5-[4(S)-(3,4-difluorophenyl)-2-oxooxazolidin-3-yl]-pentyl}-(10,11-dihydrospiro-5H-dibenzo[a,d]cycloheptene)-5,4′-piperidine]
< 20 | COCC1=C(C(=O)OC)[C@H](c2ccc(F)c(F)c2)N(C(=O)NCCCN2CCC3(CC2)c2ccccc2-c2ncccc23)C(=O)N1 [Example 49]
< 20 | COCC1=C(C(=O)OC)[C@H](c2ccc(F)c(F)c2)N(C(=O)NCCCN2CCC3(CC2)c2ccccc2-c2cccnc23)C(=O)N1 [Example 53, 1,2,3,6-tetrahydro-1-[3-((spiro(9H-indeno[2,1-b]pyridine)-9,4′-piperidin)-1′-yl)propylaminocarbonyl]-5-methoxycarbonyl-4-methoxymethyl-6(S)-(3,4-difluorophenyl)-2-oxopyrimidine]
< 20 | Cc1ccc(C2(c3ccc(C)cc3)NC(=O)N(CCCN3CCC4(CC3)c3ccccc3-c3ccccc34)C2=O)cc1 [Example 4, 1′-[3-(5,5-Bis-p-tolyl-2,4-dioxoimidazolidin-3-yl)propyl]spirofluorene-9,4′-piperidine]
< 20 | COCC1=C(C(=O)OC)[C@H](c2ccc(F)c(F)c2)N(C(=O)NCCCN2CCC3(CC2)c2ccccc2[S+]([O-])c2ccccc23)C(=O)N1 [Example 27, 1,2,3,6-tetrahydro-1-[(10-oxo-spirothioxanthene-9,4′-piperidin-1′-yl)propyl]aminocarbonyl-5-methoxycarbonyl-4-methoxymethyl-6(S)-(3,4-difluorophenyl)-2-oxopyrimidine]
< 20 | COCC1=C(C(=O)OC)[C@H](c2ccc(F)c(F)c2)N(C(=O)NCCCN2CCC3(CC2)c2ccccc2-c2ccc(F)cc23)C(=O)N1 [Example 14, 1,2,3,6-tetrahydro-1-[((2-fluorospirofluorene-9,4′-piperidin)-1′-yl)propyl]aminocarbonyl-5-methoxycarbonyl-4-methoxymethyl-6(S)-(3,4-difluorophenyl)-2-oxopyrimidine]

test system: not given; experiment: not given; settings: not given

melting point [°C] | Compound
140 to 170 | COCC1=C(C(=O)OC)C(c2ccc(F)c(F)c2)N(C(=O)NCCCN2CCC3(CC2)c2ccccc2Sc2ccccc23)C(=O)N1 (centres unmarked) (as salt: HCl)
157 to 180 | COCC1=C(C(=O)OC)[C@H](c2ccc(F)c(F)c2)N(C(=O)NCCCN2CCC3(CC2)c2ccccc2-c2ncccc23)C(=O)N1 (as salt: hydrochloride) [Example 49]
90 to 130 | O=C1OC[C@H](c2ccc(F)c(F)c2)N1CCCCCCN1CCC2(CC1)c1ccccc1Sc1ccccc12 (as salt: HCl) [Example 20, 4-(S)-(3,4-Difluorophenyl)-3-[6-(spirothioxanthen-9,4′-piperidin-1′-yl)-hexyl]-oxazolidin-2-one]
90 to 130 | O=C1OC[C@H](c2ccc(F)c(F)c2)N1CCCCCN1CCC2(CC1)c1ccccc1Sc1ccccc12 (as salt: HCl) [Example 19, 4-(S)-(3,4-Difluorophenyl)-3-[5-(spirothioxanthen-9,4′-piperidin-1′-yl)-pentyl]-oxazolidin-2-one]
158 to 196 | COCC1=C(C(=O)OC)[C@H](c2ccc(F)c(F)c2)N(C(=O)NCCCN2CCC3(CC2)c2ccccc2S(=O)(=O)c2ccccc23)C(=O)N1 (as salt: HCl) [Example 33, 1,2,3,6-tetrahydro-1-[(10,10-dioxo-spirothioxanthene-9,4′-piperidin-1′-yl)propyl]aminocarbonyl-5-methoxycarbonyl-4-methoxymethyl-6(S)-(3,4-difluorophenyl)-2-oxopyrimidine]
185 to 196 | COCC1=C(C(=O)OC)[C@H](c2ccc(F)c(F)c2)N(C(=O)NCCCN2CCC3(CC2)c2ccccc2[S+]([O-])c2ccccc23)C(=O)N1 (as salt: HCl) [Example 27, 1,2,3,6-tetrahydro-1-[(10-oxo-spirothioxanthene-9,4′-piperidin-1′-yl)propyl]aminocarbonyl-5-methoxycarbonyl-4-methoxymethyl-6(S)-(3,4-difluorophenyl)-2-oxopyrimidine]
158 to 187 | O=C(NCCCN1CCC2(CC1)c1ccccc1S(=O)(=O)c1ccccc12)N1C(=O)OC[C@@H]1c1ccc(F)c(F)c1 (as salt: HCl) [Example 32, 1′-{3-[(4S)-(3,4-Difluorophenyl)-2-oxooxazolidin-3-carbonylamino]propyl}-(10,10-dioxo-spirothioxanthene-9,4′-piperidine)]
232 to 236 | O=C1OC[C@H](c2ccc(F)c(F)c2)N1CCCCCN1CCC2(CC1)c1ccccc1CCc1ccccc12 (as salt: hydrochloride) [Example 58, 1′-{5-[4(S)-(3,4-difluorophenyl)-2-oxooxazolidin-3-yl]-pentyl}-(10,11-dihydrospiro-5H-dibenzo[a,d]cycloheptene)-5,4′-piperidine]
97 to 132 | O=C1OCC(c2ccc(F)c(F)c2)N1CCCCN1CCC2(CC1)c1ccccc1Sc1ccccc12 (centres unmarked) (as salt: HCl)
146 to 177 | O=C(NCCCN1CCC2(CC1)c1ccccc1CCc1ccccc12)N1C(=O)OC[C@@H]1c1ccc(F)c(F)c1 (as salt: hydrochloride) [Example 57, 1′-{3-[4(S)-(3,4-difluorophenyl)-2-oxooxazolidin-3-carbonylamino]-propyl}-(10,11-dihydrospiro-5H-dibenzo[a,d]cycloheptene)-5,4′-piperidine]
